Source: patent US20040029908A1, “Tricyclo compounds, a process for their production and a pharmaceutical composition containing the same” (FUJISAWA PHARMACEUTICAL CO., LTD., priority 1984, published 2004)
Values after ≈ are worked out from the molar mass of the structure shown.

What was measured:
[1] = tested on: mouse MLR (C57BL/6 responder cells, mitomycin C treated BALB/C stimulator cells); experiment: Suppression of in vitro Mixed Lymphocyte Reaction (MLR), 3H-thymidine uptake; type: cell-based; settings: for IC50: Lymphocyte, mouse MLR, 68 hours, 3H-thymidine
Experimental: The MLR test was performed in microtiter plates, with each well containing 5 ×10^5 C57BL/6 responder cells (H-2^b ), 5 ×10^5 mitomycin C treated (25μg/ml mitomycin C at 37° C. for 30 minutes and washed three times with RPMI 1640 medium) BALB/C stimulator cells (H-2^d) in 0.2 ml RPMI 1640 medium supplemented with 10% fetal calf serum, 2mM sodium hydrogen carbonate, penicillin (50 unit/ml) and streptomycin (50 μg/ml) . The cells were incubated at 37 ° C. in humidified atmosphere of 5% carbon dioxide and 95% of air for 68 hours and pulsed with ^3H-thymidine (0.5 μCi) 4 hours before the cells were collected. The object compound of this invention was dissolved in ethanol and further diluted in RPMI 1640 medium and added to the cultures to give final concentrations of 0.1 μg/ml or less.

[2] = Solubility (physical and chemical properties); type: physicochemical
[3] = tested on: Aspergillus fumigatus IFO 5840; experiment: Antimicrobial activity, serial agar dilution method in Sabouraud agar; type: cell-based; settings: IFO5840, 30° C., 24 hours
Experimental: (§1) Antimicrobial activities of the tricyclo compounds (I) against various fungi were determined by a serial agar dilution method in a Sabouraud agar. Minimum inhibitory concentrations (MIC) were expressed in terms of μg/ml after incubation at 30° C. for 24 hours.

ddY mice = experiment: Acute toxicities in ddY mice by intraperitoneal injection; type: in vivo
Fusarium oxysporum = experiment: Antimicrobial activity, serial agar dilution method in Sabouraud agar; type: cell-based; settings: 30° C., 24 hours
Experimental: as §1

[4] = hexane (n-hexane), petroleum ether
[5] = methanol, ethanol, acetone, ethyl acetate, chloroform, diethyl ether and benzene
[6] = ddY mice, intraperitoneal injection

SMILES | Radioactivities (mean C.P.M. ± S.E.) ([1]; 0.25 ng/ml) [C.P.M.] | Suppression (%) ([1]; 0.25 ng/ml) | Radioactivities (mean C.P.M. ± S.E.) ([1]; 0.500 ng/ml) [C.P.M.] | Suppression (%) ([1]; 0.500 ng/ml) | Radioactivities (mean C.P.M. ± S.E.) ([1]; 1 ng/ml) [C.P.M.] | Suppression (%) ([1]; 1 ng/ml) | Radioactivities (mean C.P.M. ± S.E.) ([1]; 10 ng/ml) [C.P.M.] | Suppression (%) ([1]; 10 ng/ml) | Radioactivities (mean C.P.M. ± S.E.) ([1]; 100 ng/ml) [C.P.M.] | Suppression (%) ([1]; 100 ng/ml) | IC50 [1] [µg/mL] | Solubility [2, 4] | Solubility [2, 5] | Solubility ([2]; water) | MIC [3] [µg/mL] | the dead at dose of 100 mg/kg (ddY mice; [6]) | also measured
CCC1/C=C(\C)CC(C)CC(OC)C2OC(O)(C(=O)C(=O)N3CCCCC3C(=O)OC(/C(C)=C/C3CCC(O)C(OC)C3)C(C)C(O)CC1=O)C(C)CC2OC (stereo not shown) [FR-900520, 17-Ethyl-1,14-dihydroxy-12-[2-(4-hydroxy-3-methoxycyclohexyl)-1-methylvinyl)-23,25-dimethoxy-13,19,21,27-tetramethyl-11,28-dioxa-4-azatricyclo-[^22.3.1.0^4,^9) octacos-18-ene-2,3,10,16-tetraone] | 14987 ± 1786 | 35.1 | 9434 ± 1546 | 59.2 | 2744 ± 527 | 88.1 | 515 ± 55 | 97.8 | 175 ± 16 | 99.2 | 0.00038 (≈ 0.00048 µM) | Sparingly Soluble | Soluble | Insoluble | 0.1 (≈ 0.126 µM) | – | the dead at dose of 100 mg/kg (ddY mice; mouse, in vivo, ip): could not be observed
CO[C@H]1C[C@@H](C)C/C(C)=C/[C@@H](C)C(=O)C[C@H](O)[C@@H](C)[C@@H](/C(C)=C/[C@@H]2CC[C@@H](O)[C@H](OC)C2)OC(=O)[C@@H]2CCCCN2C(=O)C(=O)[C@]2(O)O[C@H]1[C@@H](OC)C[C@H]2C [FR-900523] | 17721 ± 1083 | 23.3 | 11624 ± 395 | 49.7 | 5600 ± 399 | 75.8 | 156 ± 37 | 99.3 | 25 ± 12 | 99.9 | 0.0005 (≈ 0.000643 µM) | Sparingly Soluble | Soluble | Insoluble | 0.3 (≈ 0.386 µM) | could not be observed | –
C=CC[C@@H]1/C=C(\C)C[C@H](C)C[C@H](OC)[C@H]2O[C@@](O)(C(=O)C(=O)N3CCC[C@H]3C(=O)O[C@H](/C(C)=C/[C@@H]3CC[C@@H](O)[C@H](OC)C3)[C@H](C)[C@@H](O)CC1=O)[C@H](C)C[C@@H]2OC [FR-900525] | – | – | – | – | – | – | 372 ± 32 | 97.6 | 469 ± 56 | 97.0 | 0.00155 (≈ 0.00196 µM) | Sparingly Soluble | Soluble | Insoluble | 0.5 (≈ 0.633 µM) | could not be observed | Radioactivities (mean C.P.M. ± S.E.) ([1]; 1.2 ng/ml): 10103 ± 421 C.P.M.; Suppression (%) ([1]; 1.2 ng/ml): 35.8%; Radioactivities (mean C.P.M. ± S.E.) ([1]; 2.5 ng/ml): 3564 ± 512 C.P.M.; Suppression (%) ([1]; 2.5 ng/ml): 77.4%; Radioactivities (mean C.P.M. ± S.E.) ([1]; 5 ng/ml): 828 ± 369 C.P.M.; Suppression (%) ([1]; 5 ng/ml): 94.7%; MIC (Fusarium oxysporum): 1 µg/mL (≈ 1.27 µM)
